Where a name gives a salt, the structure may show the parent alone.
Tests used:
PGE1 = assay: prostaglandin-stimulated glycolysis of the prepubertal ovary (lactic acid production); assay type: cell-based, rats; details: for prostaglandin inhibiting activity: compared with the compound giving 50% reduction at 50-100 μg/ml
Procedure: The action of esters of the present invention on the prostaglandin-stimulated glycolysis of the prepubertal ovary is investigated. The method used has been described in detail by Perklev & Ahren (Life Sciences Part I, 10:1387, 1971). In these experiments ovaries from prepubertal rats are removed and placed in Erlenmeyer flasks containing compounds of this invention dissolved in Krebs biocarbonate buffer. After that the ovaries have been preincubated during 60 min. at 37° C in this medium, they are blotted on filter paper and then washed for 2 min. in plain buffer. The ovaries are then transferred to a new incubation medium containing prostaglandins (PG) dissolved in Krebs bicarbonate buffer and incubated at 37° C for 2 hrs with continuous shaking. The ovarian glycolysis is then determined by measuring the concentration of lactic acid in the incubation medium. When polyphloretin phosphate (PPP) is present in the preincubation medium in a concentration of 500 μg/ml, the subsequent ovarian lactic acid production produced by PGE1 is reduced to about 50% of that obtained with ovaries preincubated in plain buffer. When sodium bis(4-(3-(2,4,6-trihydroxyphenyl)propyl)phenyl)phosphate is investigated in the same experimental system, a 50% reduction of the lactate production is seen when only 50-100 μg/ml of the compound is present in the preincubation medium.

[1] = tested on: Slow Reacting Substance (SRS); assay: antagonism to Slow Reacting Substance on the isolated guinea-pig ileum (Mathe & Strandberg); assay type: cell-based
Procedure: The antagonism to Slow Reacting Substance (SRS) is determined on the isolated guinea-pig ileum as described by Mathe & Strandberg (Acta physiol. scand. 82:460, 1971). Purified SRS is obtained from cat paws perfused with compound 48/80 (Strandberg & Uvnas: Acta physiol. scand. 82:358, 1971). Sodium bis(4-(3-oxo-3-(2,4,6-trihydroxyphenyl)propyl)phenyl) phosphate was tested in this system in several concentrations.

[2] = tested on: prostaglandins E1, E2 F1α and F2α; assay: PG-inhibitory effect on the isolated gerbil colon; assay type: cell-based, Gerbils (Meriones unguiculatus); details: for selective inhibitory effects compared with PPP: gerbil colon; for concentration for 50 per cent reduction of the PG-induced contraction, as fraction of that of PPP: relative to PPP (10-75 μg/ml)
Procedure: The PG-inhibitory effect of esters of the present invention on the gerbil colon are determined using the general technique described by Eakins, Miller & Karim (J. Pharm. Exp. Ther. 176:441, 1971). Gerbils (Meriones unguiculatus) of own breed, both sexes, weighing 50-80 g are used. The animal is stunned, colon ascendens immediately removed, and a 2-3 cm piece mounted in a 6 ml bath containing a modified de Jalon solution at 28° C and continuously oxygenated. Contractions of the organ are registered either isotonically or isometrically. When testing the inhibitory effect of a compound this is added to the bath 2 min before the addition of prostaglandin. […] Several concentrations of each antagonist are used.

gerbil colon = assay: smooth muscle stimulatory effect on the gerbil colon in vivo; set-up: species or system mongolian gerbils; details: for contraction of the colon: i.v., same dose range (from 40 mg/kg)
Procedure: This example illustrates the smooth muscle stimulatory effect of esters of this invention on the gerbil colon in vivo.
The experiments are performed with mongolian gerbils, anesthetized with pentobarbital, 50 mg/kg. The ascending colon is exposed and carefully stretched between silk thread loops and a strain-gauge transducer.
After a stable base-line has been established an ester of this invention, sodium bis (4-(3-oxo-3-(2,4,6-trihydroxyphenyl)-propyl)phenyl) phosphate is infused i.v.
In doses from 40 mg/kg this treatment causes the gut to respond with a series of contractions.

bronchial smooth muscle = assay: isolated perfused guinea-pig lung preparation, bronchoconstriction; assay type: cell-based, guinea pigs
Excerpt: The effects of esters of the present invention on bronchial smooth muscle have been investigated using an isolated perfused guinea-pig lung preparation according to Bhattacharya & Delaunois (Arch. Int. Pharmacodyn. 101:495, 1955). The lungs from guinea pigs weighing 300-400 g are removed, and the trachea and A. pulmonalis cannulated. The arterial cannula is connected to a perfusion fluid reservoir containing Tyrode solution buffered with 10 % Sorensen phosphate buffer. The tracheal cannula is connected with tubing to a carbogen gas supply delivering a constant amount per time unit. The perfusion pressure is measured in a side arm of the tubing with a "Mercury" transducer connected to an Ultralette UV-recorder. The compounds are injected via the arterial cannula, close to the entrance of A. pulmonalis in the lung.

[3] = tested on: acetylcholine, 5-HT and bradykinin; assay: selectivity of the antagonism: other agonists on the gerbil colon; assay type: cell-based, Gerbils (Meriones unguiculatus); details: far higher concentrations than the prostaglandin-inhibitory ones
Excerpt: (§1) Results from these experiments give an approximate idea of the PG-inhibitory potency of the compounds. When more precise information about this is desired we use a more elaborate method involving the establishment of several PG dose-response curves in the presence of various concentrations of inhibitor. The method used is essentially the same as that described by Arunlakshana & Schild (Br. J. Pharm. 14:48, 1959). Other agonists, acetylcholine,5-HT and bradykinin, are included in these experiments in order to determine the selectivity of the antagonism.
(§2) In the quantitative assay it is confirmed that sodium bis(4-(3-oxo-3-(2,4,6-trihydroxyphenyl)propyl)phenyl)phosphate has a PG inhibition potency about 10 times that of PPP on a weight basis, and also the results with sodium bis (3,5-dihydroxy-4-(3-(4-hydroxyphenyl)propionyl)phenyl)phosphate are confirmed.

prostaglandins = assay: quantitative assay: PG dose-response curves in the presence of inhibitor (Arunlakshana & Schild), gerbil colon; assay type: cell-based, Gerbils (Meriones unguiculatus)
Excerpt: as §1, §2

Structure (SMILES)	prostaglandin inhibiting activity (PGE1)	inhibition of SRS [1]	selective inhibitory effects compared with PPP [2]	further results
O=C(CCc1ccc(OP(=O)([O-])Oc2ccc(CCC(=O)c3ccc(O)cc3O)cc2)cc1)c1ccc(O)cc1O.[Na+] [Sodium bis(4-(3-(2,4-dihydroxyphenyl)-3-oxopropyl)phenyl) phosphate]	same order	inhibit SRS	equal to or superior to that of PPP	contraction of the colon (gerbil colon): give contraction in the same dose range
O=P(O)(Oc1ccccc1)Oc1ccccc1 [sodium salt of diphenyl phosphate, sodium diphenyl phosphates, reference compound]		without effect		bronchoconstricting effect (bronchial smooth muscle; dose 12.8 mg): completely lacked such an effect; effect on PG-induced contraction ([2]; concentrations 10 times as high as that of PPP): without effect; effect on the colon (gerbil colon; doses up to 400 mg/kg): no effects at all
COc1ccc(CCC(=O)c2c(O)cccc2O)cc1OP(=O)([O-])Oc1cc(CCC(=O)c2c(O)cccc2O)ccc1OC.[Na+] [sodium bis(5-(3-(2,6-dihydroxyphenyl)-3-oxopropyl)-2-methoxyphenyl)phosphate]	same order	inhibit SRS	equal to or superior to that of PPP	
O=C(CCc1ccc(OP(=O)([O-])Oc2ccc(CCC(=O)c3c(O)cc(O)cc3O)cc2)cc1)c1c(O)cc(O)cc1O.[Na+] [sodium bis(4-(3-oxo-3-(2,4,6-trihydroxyphenyl)-propyl)phenyl) phosphate]				influence on the contractions elicited by acetylcholine, 5-HT or bradykinin [3]: no influence; PG inhibition potency relative to PPP (prostaglandins; on a weight basis): about 10 times; activity as a prostaglandin inhibitor relative to PPP (PGE1): 5-10 times; IC50 (PGE1; Rattus norvegicus, preincubation 60 min at 37° C, read-out: concentration in the preincubation medium giving a 50% reduction of the lactate production): 50 to 100 µg/mL; dose showing a bronchoconstricting effect (bronchial smooth muscle; injected via the arterial cannula, about 0.5 mg and upwards): ≥ 0.5 mg; minimal effective concentration ([1]; Cavia porcellus, concentrations as low as, read-out: concentration that inhibits contractions produced by SRS): ≥ 5 µg/mL; manner of inhibition of SRS ([1]; parallel shift of the dose-response curves, no change in maximum contraction): competitive manner; concentration for 50 per cent reduction of the PG-induced contraction, as fraction of that of PPP [2]: about one tenth; minimal effective dose (gerbil colon; Meriones unguiculatus, iv, infused i.v., gerbils anesthetized with pentobarbital, ascending colon, read-out: dose causing the gut to respond with a series of contractions): ≥ 40 mg/kg
O=C(CCc1cccc(OP(=O)(O)Oc2cccc(CCC(=O)c3ccc(O)cc3)c2)c1)c1ccc(O)cc1 [sodium bis(3-(3-(4-hydroxyphenyl-3-oxopropyl)phenyl) phosphate]	same order	inhibit SRS	equal to or superior to that of PPP	
COc1ccc(C(=Cc2ccc(C(=O)[O-])cc2)C(=O)c2ccc(OP(=O)([O-])Oc3ccc(C(=O)C(=Cc4ccc(C(=O)[O-])cc4)c4ccc(OC)cc4)c(OC)c3)cc2OC)cc1.[Na+].[Na+].[Na+] [trisodium bis(4-(3-(4-carboxylatophenyl)-2-(4-methoxy-phenyl)-acryloyl)-3-methoxyphenyl) phosphate]	same order	inhibit SRS	equal to or superior to that of PPP	
O=C(CCc1cccc(OP(=O)([O-])Oc2cccc(CCC(=O)c3ccc(O)cc3O)c2)c1)c1ccc(O)cc1O.[Na+] [sodium bis(3-(3-(2,4-dihydroxyphenyl)-3-oxopropyl)phenyl) phosphate]	same order	inhibit SRS	equal to or superior to that of PPP	
O=C([O-])c1ccc(CCC(=O)c2cccc(OP(=O)([O-])Oc3cccc(C(=O)CCc4ccc(C(=O)[O-])cc4)c3)c2)cc1.[Na+].[Na+].[Na+] [trisodium bis(3-(3-(4-carboxylatophenyl)propionyl)phenyl) phosphate]	same order	inhibit SRS	equal to or superior to that of PPP	
O=C([O-])COc1cccc(C(=O)CCc2ccc(OP(=O)([O-])Oc3ccc(CCC(=O)c4cccc(OCC(=O)[O-])c4)cc3)cc2)c1.[Na+].[Na+].[Na+] [trisodium bis(4-(3-(3-(carboxylatomethoxy)phenyl)-3-oxopropyl)-phenyl) phosphate]	same order	inhibit SRS	equal to or superior to that of PPP	
O=C(CCc1ccc(O)cc1)c1c(O)cc(OP(=O)(O)Oc2cc(O)c(C(=O)CCc3ccc(O)cc3)c(O)c2)cc1O [sodium bis(3,5-dihydroxy-4-(3-(4-hydroxyphenyl)propionyl)phenyl phosphate]	same order	inhibit SRS		influence on the contractions elicited by acetylcholine, 5-HT or bradykinin [3]: no influence; results of the approximate assay (one fourth of the PPP concentration) in the quantitative assay (prostaglandins): confirmed; concentration for 50 per cent reduction of the PG-induced contraction, as fraction of that of PPP [2]: one fourth; contraction of the colon (gerbil colon): give contraction in the same dose range
